Assay results taken from the NIST ThermoML archive (doi:10.1021/je900596d).
Numbers after ± are expanded uncertainties.

Details: 362.9 K, Vibrating tube method

FC(F)=C(F)C(F)(F)F [hexafluoropropene]
Details	mass density [kg/m3]
986.7 kPa, Fluid (supercritical or subcritical phases)	55.35 ± 0.08
1010.4 kPa, Fluid (supercritical or subcritical phases)	56.58 ± 0.09
1044 kPa, Fluid (supercritical or subcritical phases)	59.01 ± 0.09
1060.4 kPa, Fluid (supercritical or subcritical phases)	59.9 ± 0.09
1076.4 kPa, Fluid (supercritical or subcritical phases)	61.11 ± 0.09
1097.9 kPa, Fluid (supercritical or subcritical phases)	62.31 ± 0.09
1119.7 kPa, Fluid (supercritical or subcritical phases)	63.86 ± 0.1
1141.5 kPa, Fluid (supercritical or subcritical phases)	65.33 ± 0.1
1162.5 kPa, Fluid (supercritical or subcritical phases)	66.89 ± 0.1
1202.5 kPa, Fluid (supercritical or subcritical phases)	69.4 ± 0.1
1221.4 kPa, Fluid (supercritical or subcritical phases)	70.92 ± 0.1
1239.6 kPa, Fluid (supercritical or subcritical phases)	71.99 ± 0.11
1257.3 kPa, Fluid (supercritical or subcritical phases)	73.4 ± 0.11
1274.3 kPa, Fluid (supercritical or subcritical phases)	74.42 ± 0.11
1293.3 kPa, Fluid (supercritical or subcritical phases)	76 ± 0.11
1312.3 kPa, Fluid (supercritical or subcritical phases)	77.04 ± 0.11
1331.5 kPa, Fluid (supercritical or subcritical phases)	78.67 ± 0.12
1349 kPa, Fluid (supercritical or subcritical phases)	79.84 ± 0.12
1367.1 kPa, Fluid (supercritical or subcritical phases)	81.15 ± 0.12
1388 kPa, Fluid (supercritical or subcritical phases)	82.53 ± 0.12
1408.2 kPa, Fluid (supercritical or subcritical phases)	83.98 ± 0.12
1429.7 kPa, Fluid (supercritical or subcritical phases)	85.75 ± 0.13
1447.9 kPa, Fluid (supercritical or subcritical phases)	86.99 ± 0.13
1484.9 kPa, Fluid (supercritical or subcritical phases)	89.9 ± 0.13
1503.2 kPa, Fluid (supercritical or subcritical phases)	91.22 ± 0.13
1521.3 kPa, Fluid (supercritical or subcritical phases)	92.61 ± 0.14
1544.9 kPa, Fluid (supercritical or subcritical phases)	94.44 ± 0.14
1567.8 kPa, Fluid (supercritical or subcritical phases)	96.26 ± 0.14
1613.4 kPa, Fluid (supercritical or subcritical phases)	99.81 ± 0.15
1634.9 kPa, Fluid (supercritical or subcritical phases)	101.65 ± 0.15
1655.8 kPa, Fluid (supercritical or subcritical phases)	103.37 ± 0.15
1676.7 kPa, Fluid (supercritical or subcritical phases)	104.81 ± 0.15
1696.6 kPa, Fluid (supercritical or subcritical phases)	106.47 ± 0.16
1716 kPa, Fluid (supercritical or subcritical phases)	108.07 ± 0.16
1734.8 kPa, Fluid (supercritical or subcritical phases)	109.59 ± 0.17
1753 kPa, Fluid (supercritical or subcritical phases)	111.4 ± 0.17
1771.1 kPa, Fluid (supercritical or subcritical phases)	112.78 ± 0.16
1788.6 kPa, Fluid (supercritical or subcritical phases)	114.27 ± 0.17
1805.4 kPa, Fluid (supercritical or subcritical phases)	115.72 ± 0.17
1838.2 kPa, Fluid (supercritical or subcritical phases)	118.54 ± 0.18
1868.9 kPa, Fluid (supercritical or subcritical phases)	121.28 ± 0.18
1898.3 kPa, Fluid (supercritical or subcritical phases)	124.13 ± 0.19
1923.7 kPa, Fluid (supercritical or subcritical phases)	126.25 ± 0.19
1953.6 kPa, Fluid (supercritical or subcritical phases)	129.06 ± 0.2
1971.3 kPa, Fluid (supercritical or subcritical phases)	130.89 ± 0.2
1988.2 kPa, Fluid (supercritical or subcritical phases)	132.28 ± 0.2
2005 kPa, Fluid (supercritical or subcritical phases)	133.86 ± 0.21
2021.3 kPa, Fluid (supercritical or subcritical phases)	135.65 ± 0.21
2037.3 kPa, Fluid (supercritical or subcritical phases)	137.17 ± 0.21
2066.9 kPa, Fluid (supercritical or subcritical phases)	140.08 ± 0.21
2099 kPa, Fluid (supercritical or subcritical phases)	143.21 ± 0.22
2115.6 kPa, Fluid (supercritical or subcritical phases)	144.99 ± 0.22
2133.5 kPa, Fluid (supercritical or subcritical phases)	146.69 ± 0.23
2152 kPa, Fluid (supercritical or subcritical phases)	148.88 ± 0.24
2207.8 kPa, Fluid (supercritical or subcritical phases)	154.82 ± 0.24
2239 kPa, Fluid (supercritical or subcritical phases)	158.23 ± 0.25
2255.7 kPa, Fluid (supercritical or subcritical phases)	160.15 ± 0.25
2279.2 kPa, Fluid (supercritical or subcritical phases)	162.54 ± 0.26
2296 kPa, Fluid (supercritical or subcritical phases)	164.49 ± 0.26
2320.6 kPa, Fluid (supercritical or subcritical phases)	167.17 ± 0.27
2341.1 kPa, Fluid (supercritical or subcritical phases)	169.73 ± 0.28
2363.6 kPa, Fluid (supercritical or subcritical phases)	172.35 ± 0.29
2382.4 kPa, Fluid (supercritical or subcritical phases)	174.89 ± 0.3
2399.2 kPa, Fluid (supercritical or subcritical phases)	176.97 ± 0.29
2416.1 kPa, Fluid (supercritical or subcritical phases)	178.92 ± 0.3
2454.2 kPa, Fluid (supercritical or subcritical phases)	183.72 ± 0.31
2471.2 kPa, Fluid (supercritical or subcritical phases)	185.86 ± 0.32
2493.7 kPa, Fluid (supercritical or subcritical phases)	188.92 ± 0.33
2510.8 kPa, Fluid (supercritical or subcritical phases)	191.35 ± 0.33
2532.7 kPa, Fluid (supercritical or subcritical phases)	194.2 ± 0.34
2568.3 kPa, Fluid (supercritical or subcritical phases)	199.28 ± 0.36
2584.5 kPa, Fluid (supercritical or subcritical phases)	201.68 ± 0.36
2637.6 kPa, Fluid (supercritical or subcritical phases)	209.57 ± 0.38
2655.8 kPa, Fluid (supercritical or subcritical phases)	212.2 ± 0.39
2673.6 kPa, Fluid (supercritical or subcritical phases)	215.1 ± 0.41
2690.3 kPa, Fluid (supercritical or subcritical phases)	217.71 ± 0.42
2706.4 kPa, Fluid (supercritical or subcritical phases)	220.44 ± 0.42
2736.2 kPa, Fluid (supercritical or subcritical phases)	225.31 ± 0.44
2764.5 kPa, Fluid (supercritical or subcritical phases)	230.31 ± 0.46
2781.5 kPa, Fluid (supercritical or subcritical phases)	233.26 ± 0.48
2809.5 kPa, Fluid (supercritical or subcritical phases)	238.5 ± 0.5
2870.6 kPa, Fluid (supercritical or subcritical phases)	250.29 ± 0.55
2897.9 kPa, Fluid (supercritical or subcritical phases)	256.08 ± 0.6
2916.5 kPa, Fluid (supercritical or subcritical phases)	260.21 ± 0.61
2944.7 kPa, Fluid (supercritical or subcritical phases)	266.58 ± 0.65
2978.3 kPa, Fluid (supercritical or subcritical phases)	274.33 ± 0.69
2997 kPa, Fluid (supercritical or subcritical phases)	278.8 ± 0.74
3015.2 kPa, Fluid (supercritical or subcritical phases)	283.34 ± 0.78
3032.8 kPa, Fluid (supercritical or subcritical phases)	287.81 ± 0.83
3049.7 kPa, Fluid (supercritical or subcritical phases)	292.35 ± 0.9
3066.4 kPa, Fluid (supercritical or subcritical phases)	297.12 ± 1
3119.6 kPa, Fluid (supercritical or subcritical phases)	313.41 ± 1.1
3140.3 kPa, Fluid (supercritical or subcritical phases)	320.42 ± 1.1
3159.2 kPa, Fluid (supercritical or subcritical phases)	327.22 ± 1.2
3176.3 kPa, Fluid (supercritical or subcritical phases)	333.78 ± 1.2
3193.5 kPa, Fluid (supercritical or subcritical phases)	340.76 ± 1.3
3209.9 kPa, Fluid (supercritical or subcritical phases)	347.93 ± 1.4
3229.3 kPa, Fluid (supercritical or subcritical phases)	357.01 ± 1.5
3246.9 kPa, Fluid (supercritical or subcritical phases)	366.07 ± 1.6
3263.4 kPa, Fluid (supercritical or subcritical phases)	375.24 ± 1.8
3285.9 kPa, Fluid (supercritical or subcritical phases)	389.23 ± 2
3305.8 kPa, Fluid (supercritical or subcritical phases)	403.5 ± 2.5
3341.5 kPa, Fluid (supercritical or subcritical phases)	436.07 ± 3
3360.9 kPa, Fluid (supercritical or subcritical phases)	459.89 ± 8
3377.9 kPa, Fluid (supercritical or subcritical phases)	530.57 ± 10
3394.4 kPa, Fluid (supercritical or subcritical phases)	567.77 ± 6.8
3410.4 kPa, Fluid (supercritical or subcritical phases)	601.27 ± 6.3
3426.7 kPa, Fluid (supercritical or subcritical phases)	633.69 ± 5
3445.3 kPa, Fluid (supercritical or subcritical phases)	659.79 ± 4
3463.4 kPa, Fluid (supercritical or subcritical phases)	682.18 ± 3.6
3480.7 kPa, Fluid (supercritical or subcritical phases)	701.66 ± 3
3498.4 kPa, Fluid (supercritical or subcritical phases)	717.14 ± 2.6
4505.3 kPa, Fluid (supercritical or subcritical phases)	920.24 ± 0.99
4525.6 kPa, Fluid (supercritical or subcritical phases)	921.9 ± 0.99
4552.8 kPa, Fluid (supercritical or subcritical phases)	924.12 ± 1
4579.3 kPa, Fluid (supercritical or subcritical phases)	926.3 ± 1
4626.5 kPa, Fluid (supercritical or subcritical phases)	929.99 ± 1
4646.5 kPa, Fluid (supercritical or subcritical phases)	931.47 ± 1
4666.9 kPa, Fluid (supercritical or subcritical phases)	932.99 ± 1
4687.6 kPa, Fluid (supercritical or subcritical phases)	934.6 ± 1
4707.8 kPa, Fluid (supercritical or subcritical phases)	936.1 ± 1
4762.6 kPa, Liquid	939.84 ± 1.1
4784.8 kPa, Liquid	941.44 ± 1.1
4810.7 kPa, Liquid	943.09 ± 1.1
4836.8 kPa, Liquid	944.88 ± 1.1
4878.2 kPa, Liquid	947.51 ± 1.1
4899.5 kPa, Liquid	948.95 ± 1.1
4921.9 kPa, Liquid	950.41 ± 1.1
4942.5 kPa, Liquid	951.63 ± 1.1
4962.8 kPa, Liquid	952.76 ± 1.1
4983.6 kPa, Liquid	954.01 ± 1.1
5010.6 kPa, Liquid	955.79 ± 1.1
5047.3 kPa, Liquid	957.89 ± 1.1
